Columns and labels:
[1] = tested on: HFD-fed rats injected with streptozotocin (STZ) to induce type 2 diabetes (T2DM); assay: Study 3 (BVISIV Study): HFD plus STZ type 2 diabetes rats, 200 mg/kg/day; type: in vivo
[2] = has been reported; model of accelerated aging; cited from earlier work

## O=C[C@H](O)[C@@H](O)[C@@H](O)[C@H](O)C(=O)O [BVISIV 4, Galacturonic Acid]
[1]; end of 6 weeks
  lowering of glucose serum levels vs Group 2: most effective

## O=C[C@H](O)[C@@H](O)[C@@H](O)[C@H](O)CO [BVISIV 5, Galactose]
[1]; HFD/T2DM rats
  reduction of serum ALT levels: effective
  reduction of serum LDL cholesterol levels: effective
  reduction of serum triglyceride levels: effective
[2]
  aging effect (cognitive and motor skills): deterioration of cognitive and motor skills

## O=C[C@@H](O)[C@H](O)[C@H](O)CO [BVISIV 6, Arabinose]
[1]; HFD/T2DM rats
  comparative performance among formulations (triglycerides, LDL cholesterol, ALT): did not perform as well as the other formulations

Reference: patent US20180256616A1, “Compounds, Compositions and Methods for Prevention or Treatment of Liver and Lipid-Related Conditions” (Sivanaray, Inc., priority 2015, published 2018)
